The values that follow come from ChEMBL document CHEMBL5724914, “Linking interpersonal differences in gut microbiota composition and drug biotransformation activity” (2024).

The nature of data set [1]: The drug is tested on WLS-220 corresponding to human gut metagenome with ENA study accession number: PRJEB37062 and ENA sample accession number: ERS12561769 for biotransformation under anaerobic condition. The drug concentrations were measured over 9 timepoints collected between 0 and 24 hours of incubation by liquid-chromatography-coupled mass spectrometry (LC–MS). Conditions: 2 µM.

A short description of data set [2]: The drug is tested on WLS-082 corresponding to human gut metagenome with ENA study accession number: PRJEB37062 and ENA sample accession number: ERS12561751 for biotransformation under anaerobic condition. The drug concentrations were measured over 9 timepoints collected between 0 and 24 hours of incubation by liquid-chromatography-coupled mass spectrometry (LC–MS). Conditions: 2 µM.

Data set [3] can be described thus: The drug is tested on Z-004 corresponding to metagenome with ENA study accession number: PRJEB37062 and ENA sample accession number: ERS12561804 for biotransformation under anaerobic condition. The drug concentrations were measured over 9 timepoints collected between 0 and 24 hours of incubation by liquid-chromatography-coupled mass spectrometry (LC–MS). Conditions: 2 µM.

The nature of data set [4]: The drug is tested on Z-002 corresponding to rabbit gut metagenome with ENA study accession number: PRJEB37062 and ENA sample accession number: ERS12561802 for biotransformation under anaerobic condition. The drug concentrations were measured over 9 timepoints collected between 0 and 24 hours of incubation by liquid-chromatography-coupled mass spectrometry (LC–MS). Particulars: 2 µM.

A short description of data set [5]: The drug is tested on WLS-370 corresponding to human gut metagenome with ENA study accession number: PRJEB37062 and ENA sample accession number: ERS12561793 for biotransformation under anaerobic condition. The drug concentrations were measured over 9 timepoints collected between 0 and 24 hours of incubation by liquid-chromatography-coupled mass spectrometry (LC–MS). Conditions: 2 µM.

The conditions of data set [6]: human gut metagenome, 24 h, 2 µM.
The conditions of data set [7]: human gut metagenome, 24 h, 2 µM. The source holds these as a separate data set.
For data set [8] the following is noted: human gut metagenome, 24 h, 2 µM. The source holds these as a separate data set.
A short description of data set [9]: The drug is tested on WLS-052 corresponding to human gut metagenome with ENA study accession number: PRJEB37062 and ENA sample accession number: ERS12561747 for biotransformation under anaerobic condition. The drug concentrations were measured over 9 timepoints collected between 0 and 24 hours of incubation by liquid-chromatography-coupled mass spectrometry (LC–MS). Conditions: 2 µM.

Data set [10] can be described thus: The drug is tested on WLS-240 corresponding to human gut metagenome with ENA study accession number: PRJEB37062 and ENA sample accession number: ERS12561773 for biotransformation under anaerobic condition. The drug concentrations were measured over 9 timepoints collected between 0 and 24 hours of incubation by liquid-chromatography-coupled mass spectrometry (LC–MS). Particulars: 2 µM.

For data set [11] the following is noted: human gut metagenome, 24 h, 2 µM. This is another data set of the same source.
Data set [12] can be described thus: The drug is tested on Z-001 corresponding to mouse gut metagenome with ENA study accession number: PRJEB37062 and ENA sample accession number: ERS12561801 for biotransformation under anaerobic condition. The drug concentrations were measured over 9 timepoints collected between 0 and 24 hours of incubation by liquid-chromatography-coupled mass spectrometry (LC–MS). Particulars: 2 µM.

The conditions of data set [13]: human gut metagenome, 24 h, 2 µM. The source holds these as a separate data set.
Data set [14] in a line: The drug is tested on Z-018 corresponding to pig gut metagenome with ENA study accession number: PRJEB37062 and ENA sample accession number: ERS12561817 for biotransformation under anaerobic condition. The drug concentrations were measured over 9 timepoints collected between 0 and 24 hours of incubation by liquid-chromatography-coupled mass spectrometry (LC–MS). Conditions: 2 µM.

For data set [15] the following is noted: human gut metagenome, 24 h, 2 µM. The source holds these as a separate data set.
For data set [16] the following is noted: human gut metagenome, 24 h, 2 µM. The source holds these as a separate data set.
For data set [17] the following is noted: human gut metagenome, 24 h, 2 µM. This is another data set of the same source.
Data set [18] is described as follows: The drug is tested on Z-022 corresponding to mouse gut metagenome with ENA study accession number: PRJEB37062 and ENA sample accession number: ERS12561821 for biotransformation under anaerobic condition. The drug concentrations were measured over 9 timepoints collected between 0 and 24 hours of incubation by liquid-chromatography-coupled mass spectrometry (LC–MS). Conditions: 2 µM.

The conditions of data set [19]: human gut metagenome, 24 h, 2 µM. The source holds these as a separate data set.
The conditions of data set [20]: human gut metagenome, 24 h, 2 µM. This is another data set of the same source.
Further: call rule not given here.

Turning to `COc1ccnc(C[S+]([O-])c2nc3ccc(OC(F)F)cc3[nH]2)c1OC` (stereo not given) [PANTOPRAZOLE], the “Bacterial Biotransformation” value is given as “Compound metabolized” in [1]; “Compound metabolized” in [2]; “Compound metabolized” in data set [3]; “Compound NOT metabolized” in data set [4]; “Compound metabolized” in data set [5]; “Compound NOT metabolized” in data set [6]. In addition, the “Bacterial Biotransformation” value is recorded as “Compound metabolized” in data set [7]; “Compound metabolized” in data set [8]; “Compound metabolized” in data set [9]; “Compound metabolized” in data set [10]; “Compound metabolized” in data set [11]; “Compound NOT metabolized” in data set [12]. Also, the “Bacterial Biotransformation” value in data set [13], in [14], in [15], in data set [16], in data set [17] and in [18] was “Compound metabolized” in each case. For the same compound, the “Bacterial Biotransformation” value in data set [19] and in [20] was “Compound metabolized” in each case.

Consider `CCOC(=O)[C@H](CCc1ccccc1)N[C@@H](C)C(=O)N1Cc2ccccc2C[C@H]1C(=O)O`, for which the “Bacterial Biotransformation” value was “Compound metabolized” in data set [1]; “Compound metabolized” in data set [2]; “Compound NOT metabolized” in data set [3]; “Compound metabolized” in [4]; “Compound metabolized” in [5]; “Compound NOT metabolized” in data set [6]. The “Bacterial Biotransformation” value is reported as “Compound metabolized” in data set [7]; “Compound NOT metabolized” in [8]; “Compound metabolized” in [9]; “Compound metabolized” in data set [10]; “Compound metabolized” in data set [11]; “Compound NOT metabolized” in data set [12]. Besides, the “Bacterial Biotransformation” value in data set [13] is on record as “Compound metabolized”; in data set [14], “Compound NOT metabolized”; in data set [15], “Compound metabolized”; in [16], “Compound metabolized”; in data set [17], “Compound metabolized”; in data set [18], “Compound NOT metabolized”. In addition, the “Bacterial Biotransformation” value in data set [19] and in data set [20] was “Compound metabolized” each time.

As to `CC[C@H](C)C(=O)O[C@H]1CCC=C2C=C[C@H](C)[C@H](CC[C@@H]3C[C@@H](O)CC(=O)O3)[C@H]21` [MEVASTATIN], the “Bacterial Biotransformation” value in data set [1] was “Compound metabolized”; in data set [2] it was “Compound metabolized”; in data set [3], “Compound NOT metabolized”; in data set [4], “Compound NOT metabolized”; in [5], “Compound NOT metabolized”; in [6] it was “Compound NOT metabolized”. Also, the “Bacterial Biotransformation” value in [7] is “Compound metabolized”; in [8] it was “Compound NOT metabolized”; in [9] it was “Compound metabolized”; in [10] it was “Compound metabolized”; in data set [11], “Compound metabolized”; in [12], “Compound NOT metabolized”. Also, the “Bacterial Biotransformation” value in data set [13], in data set [14], in data set [15], in [16], in data set [17] and in [18] was “Compound metabolized” in each case. Besides, the “Bacterial Biotransformation” value is recorded as “Compound metabolized” in data set [19] and “Compound NOT metabolized” in [20].

Take `CN(C)CCC=C1c2ccccc2COc2ccccc21` [DOXEPIN]: the “Bacterial Biotransformation” value is “Compound metabolized” in [1]; “Compound NOT metabolized” in [2]; “Compound NOT metabolized” in data set [3]; “Compound NOT metabolized” in [4]; “Compound metabolized” in data set [5]; “Compound NOT metabolized” in data set [6]. The “Bacterial Biotransformation” value in [7] is recorded as “Compound metabolized”; in data set [8], “Compound NOT metabolized”; in [9], “Compound NOT metabolized”; in data set [10] it was “Compound metabolized”; in [11] it was “Compound NOT metabolized”; in [12], “Compound NOT metabolized”. For the same compound, the “Bacterial Biotransformation” value in data set [13] is “Compound NOT metabolized”; in [14], “Compound NOT metabolized”; in [15], “Compound metabolized”; in [16], “Compound metabolized”; in data set [17], “Compound NOT metabolized”; in data set [18], “Compound NOT metabolized”. Further, the “Bacterial Biotransformation” value in data set [19] is “Compound metabolized”; in data set [20], “Compound NOT metabolized”.
